In patent US10669296B2, “LXR agonists and uses thereof” (Rgenix, Inc., priority 2014, dated 2020):
Read-outs that look alike come from different tables or passages of the source.

What was measured:
B16F10 melanoma cells = assay: In vivo primary tumor growth assay; parameters: species or system mouse; conditions: B16F10 in C57B16 mice
Procedure: For primary tumor growth studies, 5×10^4 B16F10 melanoma cells were mixed 1:1 with matrigel and subcutaneously injected into the lower flanks of 6-week old C57B16 mice. Upon the formation of palpable tumors, 4-5 days after tumor cell injection, 10 mice were randomly assigned to groups eating a control diet or a diet supplemented with compound 8 (5 and 25 mg/kg). Tumor volume was calculated as (small diameter)^2×(large diameter)/2 and tumor growth inhibition was measured relative to vehicle control.

ApoE [1] = assay: Pharmacodynamic analysis of ApoE in peripheral blood lymphocytes (qRT-PCR); format: in vivo, mouse; conditions: mice
Procedure: In Vivo Dosing and Sample Collection: 6-7 week old […] received a single dose of Compound 8 at 52.6 mg/kg, formulated in 2% DMSO/20% Propylene Glycol/78% 0.5% Methylcellulose (400 cp) at a final concentration of 4.62 mg/mL by oral gavage. Bleeds were taken at 0.5 h, 2 h, 4 h, 8 h, 16 h, 24 h and 48 h. Mice were bled twice, the first bleed was drawn submandibular and the second through intracardiac puncture. Blood was collected in Dipotassium EDTA Microtainer tubes (02-669-38, Fisher). To isolate peripheral blood lymphocytes, blood samples were centrifuged at 2000 g for 5 min. After separation of the plasma, Erythrocytes were lysed in 1 mL Erythrocyte Lysis (EL) buffer (79217, Qiagen) and incubation at room temperature for 20 min. Samples were centrifuged at 400 g for 10 min, and peripheral blood lymphocytes washed once in EL buffer, followed by one wash in PBS.
ApoE Gene Expression Analysis by qRT-PCR: RNA was extracted from peripheral blood lymphocytes using the Total RNA Purification Micro Kit (35300, Norgen, Thorold, Canada). 200-300 ng of total RNA was then reverse transcribed into cDNA using the Verso cDNA synthesis Kit (AB-1453B, Fisher Scientific) and 6 ng of the resulting cDNA was mixed with SYBR Green PCR Mater Mix (4385612, Applied Biosystems) and quantitative real-time PCR amplification was performed using an ABI Prism 7900HT Real-Time PCR System (Applied Biosystems, Austin, Tex.). Each PCR reaction was carried out in quadruplicates. Gene expression was normalized to GAPDH, which was used as an endogenous control. Primers used as described in Example 86.
Results: The results of ApoE induction in vivo by compound 8 is shown in Table 9 where Pre-Dose represents endogenous levels of ApoE induction prior to dosing, n is the number of samples analyzed, and values are expressed as fold induction over pre-dose endogenous ApoE levels (normalized to 1.0). Peak induction of compound 8 is >6-fold over background at 4 h.

Cancer cells (MeWo) = assay: Matrigel invasion assay; format: cell-based; conditions: 1 μM drug, invasion 24 h
Procedure: Cancer cells (MeWo) were pre-treated in presence of 1 μM drug or control (DMSO) for 72 h after which cancer cells were switched to serum-starvation in 0.2% FBS DMEM-based media for 16 h in the presence of the drug or control, respectively. Trans-well invasion chambers (354480, BD Biosciences, Bedford, Mass.) were pre-equilibrated in DMEM-based media prior to the beginning of the assay by adding 0.5 ml of starvation media to the top and bottom chambers. After 30 min, the media in the top chamber was removed, and 0.5 ml of media containing 1×10^5 cancer cells in the presence of the drug, was added into each matrigel-coated trans-well insert. Cells were allowed to invade through the matrigel-coated inserts for 24 h at 37° C.

ApoE [2] = assay: ApoE gene expression analysis by qRT-PCR in MeWo cancer cells; format: cell-based; conditions: Homo sapiens, MeWo, 48 h; for Emax at 1 µM / Emax at 10 µM: read-out: ApoE gene expression in relation to GW3965 at 1 μM (100%)
Procedure: Cancer cells (MeWo) were treated in presence of drug or control (DMSO) at indicated concentrations for 48 h. RNA was extracted from whole cell lysates using the Total RNA Purification Kit (17200, Norgen, Thorold, Canada). 600 ng of total RNA was then reverse transcribed into cDNA using the Verso cDNA Synthesis Kit (AB-1453/B, Fisher Scientific). 6 ng of the resulting cDNA was then mixed with SYBR green PCR Master Mix (4309155, Applied Biosystems) and the appropriate primers. Each reaction was performed in quadruplicate, and mRNA expression was quantified by performing real-time PCR amplification using a StepOne Plus Real-Time PCR System (Applied Biosystems). GAPDH was used as an endogenous control for normalization. EC50 values were calculated using Prism6 software and plotting expression values versus drug concentration. The following primers were used: [table] The results are shown in relation to GW3965 ApoE expression at 1 μM (i.e. 100%).

Aβ plaque burden = conditions: mouse model of Alzheimer's disease, Jiang et al., Neuron 2008; cited from earlier work
LXRβ = LXRβ (Homo sapiens (Human), UniProt P55055); assay: ligand sensing assay (LiSA), LXRβ; format: biochemical; conditions: ratio of EC50 values
Description: As used herein, reference to the activity of an LXR agonist at LXRα and LXRβ refer to the activity as measured using the ligand sensing assay (LiSA) described in Spencer et al. J. Med. Chem. 2001, 44, 886-897, incorporated herein by reference. […] For example, the methods of the invention can be performed using an LXRβ agonist having activity for LXRβ that is at least 3-fold greater than the activity of the agonist for LXRα, or having activity for LXRβ that is at least 10-fold greater than the activity of the agonist for LXRα, or having activity for LXRβ that is at least 100-fold greater than the activity of the agonist for LXRα, or having activity for LXRβ that is at least within 3-fold of the activity of the agonist for LXRα. The term “greater activity” in the LiSA assay refers to a lower EC50.

LXRβ, sequence (P55055 whole entry): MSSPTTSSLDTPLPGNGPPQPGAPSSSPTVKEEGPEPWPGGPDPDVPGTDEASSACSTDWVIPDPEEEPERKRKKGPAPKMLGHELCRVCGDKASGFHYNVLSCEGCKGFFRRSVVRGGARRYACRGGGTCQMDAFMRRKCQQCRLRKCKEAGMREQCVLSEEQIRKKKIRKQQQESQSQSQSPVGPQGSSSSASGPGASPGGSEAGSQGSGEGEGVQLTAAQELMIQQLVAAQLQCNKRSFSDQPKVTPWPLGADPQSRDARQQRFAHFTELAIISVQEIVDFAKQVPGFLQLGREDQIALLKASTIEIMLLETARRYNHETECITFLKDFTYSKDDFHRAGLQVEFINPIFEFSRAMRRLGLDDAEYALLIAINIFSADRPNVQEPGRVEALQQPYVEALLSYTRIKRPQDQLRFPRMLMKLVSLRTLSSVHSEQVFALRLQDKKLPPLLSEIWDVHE

Compound | Mean tumor volume (mm3) (+/−S.E.M.) (B16F10 melanoma cells; 5 mg/kg in diet) | Tumor growth inhibition % of control (+/−S.E.M.) (B16F10 melanoma cells; 5 mg/kg in diet) | Mean tumor volume (mm3) (+/−S.E.M.) (B16F10 melanoma cells; 25 mg/kg in diet) | Fold ApoE Induction Over Pre-Dose Level (+/−S.D.) (ApoE [1]; 0.5 h after single oral dose 52.6 mg/kg) | Fold ApoE Induction Over Pre-Dose Level (+/−S.D.) (ApoE [1]; 2 h after single oral dose 52.6 mg/kg) | Fold ApoE Induction Over Pre-Dose Level (+/−S.D.) (ApoE [1]; 4 h after single oral dose 52.6 mg/kg) | Fold ApoE Induction Over Pre-Dose Level (+/−S.D.) (ApoE [1]; 8 h after single oral dose 52.6 mg/kg) | Fold ApoE Induction Over Pre-Dose Level (+/−S.D.) (ApoE [1]; 16 h after single oral dose 52.6 mg/kg) | Fold ApoE Induction Over Pre-Dose Level (+/−S.D.) (ApoE [1]; 24 h after single oral dose 52.6 mg/kg) | Fold ApoE Induction Over Pre-Dose Level (+/−S.D.) (ApoE [1]; 48 h after single oral dose 52.6 mg/kg) | % of Cells Migrated Compared to Control (Cancer cells (MeWo)) [%] | EC50 (ApoE [2]) [µM] | Emax at 1 µM (ApoE [2]) [%] | Emax at 10 µM (ApoE [2]) [%] | amyloid-beta plaques (Aβ plaque burden) | fold greater activity for LXRβ compared to LXRα (LXRβ) | Emax at 1 µM (ApoE [2]; reference value) [%]
CS(=O)(=O)c1cc(OCCCN(Cc2cccc(C(F)(F)F)c2Cl)CC(c2ccccc2)c2ccccc2)cc(F)c1CO [Compound 8, {4-[3-({[2-chloro-3-(trifluoromethyl)phenyl]methyl}(2,2-diphenylethyl)amino)propoxy]-2-fluoro-6-methanesulfonylphenyl}methanol] | 686 (+/−97) mm3 | 13% (+/−12%) | 475 (+/−56) mm3 | 1.3 (+/−0.3) fold | 2.7 (+/−0.5) fold | 6.3 (+/−1.8) fold | 3.8 (+/−2.4) fold | 0.3 (+/−0.4) fold | 0.4 (+/−0.6) fold | 0.1 (+/−0.3) fold | <50 | < 1 | > 80 | > 80 | – | – | –
O=C(O)Cc1cccc(OCCCN(Cc2cccc(C(F)(F)F)c2Cl)CC(c2ccccc2)c2ccccc2)c1 [GW3965, reference compound] | – | – | – | – | – | – | – | – | – | – | <70 | < 0.3 | – | > 40 | therapeutic reduction of amyloid-beta plaques | approximately 6 fold | 100
